Experimental data from US9579299B2, “CNS pharmaceutical compositions and methods of use” (TARGIA PHARMACEUTICALS, priority 2008, dated 2017).
Values joined by “and” are separate entries in the source; they are usually repeats but may differ in a detail not shown here. Equal values may be shown once. “Also recorded” adds a separate entry of the source.

Experiments:
four healthy volunteers [1] = assay: Example 7: Stanford Sleepiness Scale study with alprazolam; format: in vivo, human; settings: for time until subjects were asleep: all four subjects; for 2 Hr SSS / 4 Hr SSS / 6 Hr SSS: individual subjects
Procedure: The research study was performed on four healthy volunteers, ages 25-41 years old and 60-75 kg. The study was carried out in two sessions with one week in between. During the study volunteers completed a test to measure sleepiness by Stanford Sleepiness Scale (SSS). This SSS test was done before doses of the compositions being evaluated and 2, 4 and 6 hours after such doses (see FIG. 5 for an illustration of the study scheme).
At the first session, volunteers received the treatment (Alprazolam 1.0 mg)+PLAC (placebo)+ and 15 minutes later another PLAC. […] Their SSS score at 2 hour time point was 6 (woozy, fighting sleep). […] The other 2 patients slept through the 2, 4 and 6 hour testing.
At the second study session, volunteers received the treatment (Alprazolam 1.0 mg+60 mg of pseudoephedrine) and 15 minutes later received 400 mg of guaifenesin. […] After 2 and half hours, three out of the four subjects woke up and stayed awake for the rest of the time. Their SSS scores for 4 hour time point test were 2, 3 and 5, for 6 hour time point test SSS scores were 1, 3, 2. The fourth subject woke up for the 6 hour time point test and their SSS score was 3.

[2] = test system: one GAD patient, a person; assay: Example 11: alprazolam with neuromodulators in one GAD patient; format: in vivo, human
Procedure: The study was performed on one GAD patient. Fourteen days prior to the first treatment session, the subject was screened with a standard medical/psychiatric history and physical exam. The subject was rated on the Hamilton Anxiety Scale the Stanford Sleepiness Scale (SSS).
During their second visit, immediately prior to administration of alprazolam and placebo, the subject was rated on the Hamilton Anxiety Scale, Quality of Life Questionaire and SSS (pre dose, time 0). Following these tests, the subject received a regular morning alprazolam dose and placebo to mimic pseudoephedrine. Fifteen minutes later, the subject received approximately 120 ml of water and placebo to mimic guaifenesin. The subject was rated on the SSS at 2 hours (anticipated peak plasma concentration) and 4 hours following administration alprazolam. The subject was given enough placebo medication to last for one week (until Visit 3) with the exact instructions to take their medications in the same manner as described above. During this 7-day period, the subject completed an SSS questionaire (Table 16, Placebo). Ratings on the SSS were recorded immediately before (pre) and 3 hours following (post) administration of alprazolam.
During Visit 3, the subject was rated on the Hamilton Anxiety Scale, Quality of Life Questionaire, and SSS 3 hours after initial dose. The subject was then given the active neuromodulators and told to start with them on the next day following ingestion of the regular alprazolam medication. The subject took pseudoephedrine with alprazolam and Mucinex 15 minutes later (neuromodulators were given no more than twice a day and not after 6 PM). Three hours after each dose, the subject recorded their SSS measurements (Table 16, Treatment). […] Throughout this week, the subject recorded SSS scores of 1 (high alertness, no sedatition).

[3] = CNS active agent; cited from earlier work
[4] = test system: 8 patients suffering from GAD; assay: Example 10: single blind trial of alprazolam with neuromodulators in GAD; format: in vivo, human; settings: alprazolam 1 mg with pseudoephedrine 60 mg, guaifenesinER 600 mg 15 minutes later; one week
Procedure: The study was a single blind trial in which a panel of 8 patients suffering from GAD were administered alprazolam (1 mg), pseudoephedrine (60 mg), and guaifenesinER (600 mg). Subjects underwent an initial screening and then two weeks of testing with the medications of the study (see FIG. 7 for an illustration of the study scheme). Fourteen days prior to the first treatment session, subjects were screened with a standard medical/psychiatric history and physical exam (Screening Visit, Visit 1). Standard laboratory tests were performed at Screening Visit 1 including those of chemistry, hematology and urinalysis, urine test for drugs of abuse, HIV and hepatitis B and C serology tests, 12-lead resting electrocardiogram, and serum pregnancy test for females.
Prior to administration of the placebo treatment, the subjects were rated on the Hamilton Anxiety Scale, Quality of Life Questionnaire, and the Stanford Sleepiness Scale (SSS) (Visit 2, data not shown). Subjects complained of oversedation (SSS score of 4 or greater) from their psychopharmacologic regimen, which included benzodiazepine or alprazolam therapy.
Subjects were given a placebo medication that mimics the two neuromodulators for 7 days and underwent another series of tests at the end of this 7-day period (Visit 3). […]

[5] = parent drug; cited from earlier work
four healthy volunteers [6] = assay: Example 9: Stanford Sleepiness Scale study with lorazepam; format: in vivo, human; settings: for 2:00 SSS / 4:00 SSS / 6:00 SSS / time until subject was asleep: individual subjects
Procedure: The purpose of this study was to determine if the co-administration of pseudoephedrine and guaifenesin with lorazepam is effective in reducing the sedation commonly seen with the administration of lorazepam alone. The research study was performed on four healthy volunteers ages 25-41 years old and 60-75 kg. The study was carried out by two sessions with a one-week interval between the sessions. During the study volunteers completed a set of tests to measure sleepiness by the Stanford Sleepiness Scale (SSS). This test was done before doses of study drug and 2, 4 and 6 hours after doses of study drug (see FIG. 5 for an illustration of the study scheme).
At the first study session volunteers received the treatment (Lorazepam 1.0 mg)+PLAC (placebo)+ and 15 minutes later another PLAC. […] They stayed awake at the 4- and 6-hour time points. Their SSS scores were 2. Two subjects were asleep in one hour. One of them slept 3.5 hours, their SSS at the 6-hour time point was 2. The second subject slept 2.5 hours, and their SSS scores for both the 4- and 6-hour time points were 2. […] They remained awake at the 4- and 6-hour time points. Their SSS scores were 2.
At the second study session volunteers received the treatment (Lorazepam 1.0 mg+60 mg of pseudoephedrine) and 15 minutes later received 400 mg of guaifenesin. During this session all four subjects remained awake most of the time. […] They missed the 2-hour time point measurement, and their SSS scores for the 4- and 6-hour time points were 2 and 3, respectively. […] Their SSS score for 2-hour time point was 2. This subject was asleep again within 3 and a half hours and slept for one hour. They missed the 4-hour time point, but was awake for measurements at the 6-hour time point (SSS was 2). […] They stayed awake the rest of the time, and their SSS scores for the 2-, 4-, and 6-hour time points were 3,2,3 respectively.

subject = assay: Example 5: Lorazepam with pseudoephedrine and Mucinex, subject report; format: in vivo, human; settings: Lorazepam 1 mg and pseudoephedrine 60 mg; 15 minutes later Mucinex 600 mg
Procedure: The subject reported that they took Lorazepam 1 mg and pseudoephedrine 60 mg at 12 noon and 15 minutes later ingested and Mucinex 600 mg.

[7] = test system: Volunteer A, a healthy person; assay: Example 6: Volunteer A, Lorazepam with and without neuromodulators; format: in vivo, human
Procedure: Volunteer A, a healthy person ([…], 95 Kg), was prescribed 1 mg Lorazepam (BDR) by their family doctor for anxiety and anxiety related insomnia. Volunteer A took Lorazepam in conjunction with the neuromodulators to reduce Lorazepam's associated sedative side-effects. Volunteer A, who felt their anxiety peak particularly on weekends, agreed to take Lorazepam during the day together with the neuromodulators. […] When taking Lorazepam simultaneously with Pseudoephedrine, Guaifenesin and, Volunteer A was sedated and less anxious.

[8] = First Visit Day on Placebo: Alprazolam 1.0 mg + placebo
[9] = First Visit Day on Placebo: Alprazolam 1.0 mg + placebo, listed as alprazolam
[10] = Second Visit Day on Active Neuromodulation: Alprazolam 1.0 mg + 60 mg pseudoephedrine, 400 mg guaifenesin 15 minutes later
[11] = Second Visit Day on Active Neuromodulation: Alprazolam 1.0 mg + 60 mg pseudoephedrine, 400 mg guaifenesin 15 minutes later, listed as alprazolam
[12] = First Visit Day on Placebo: Lorazepam 1.0 mg + placebo
[13] = First Visit Day on Placebo: Lorazepam 1.0 mg + placebo, listed as lorazepam
[14] = Lorazepam 1.0 mg + pseudoephedrine, guaifenesin 15 minutes later
[15] = Second Visit Day on Active Neuromodulation: Lorazepam 1.0 mg + 60 mg pseudoephedrine, 400 mg guaifenesin 15 minutes later
[16] = Second Visit Day on Active Neuromodulation: Lorazepam 1.0 mg + 60 mg pseudoephedrine, 400 mg guaifenesin 15 minutes later, listed as lorazepam
[17] = 1 mg Lorazepam together with Pseudoephedrine followed by Guaifenesin after 15 minutes
[18] = Lorazepam followed 15 minutes later by Guaifenesin
[19] = Lorazepam simultaneously with Pseudoephedrine, Guaifenesin
[20] = Lorazepam together with pseudoephedrine

SMILES: Cc1nnc2n1-c1ccc(Cl)cc1C(c1ccccc1)=NC2 [Alprazolam]
- time until subjects were asleep (four healthy volunteers [1]; Alprazolam 1.0 mg + placebo): within an hour and a half
- time until subjects were asleep (four healthy volunteers [1]; Alprazolam 1.0 mg + pseudoephedrine, guaifenesin 15 minutes later): within an hour and a half
- 2 Hr SSS (four healthy volunteers [1]; [8]): 6
- 4 Hr SSS (four healthy volunteers [1]; [8]): 6
- 2 Hr SSS (four healthy volunteers [1]; [9]): X - asleep (3×) and 6
- 4 Hr SSS (four healthy volunteers [1]; [9]): X - asleep (3×) and 6
- 6 Hr SSS (four healthy volunteers [1]; [9]): X - asleep (3×) and 3
- 2 Hr SSS (four healthy volunteers [1]; [10]): X - asleep
- 4 Hr SSS (four healthy volunteers [1]; [10]): 2 and 3 and 5
- 6 Hr SSS (four healthy volunteers [1]; [10]): 1 and 3 and 2
- 4 Hr SSS (four healthy volunteers [1]; [11]): 2 and X - asleep and 5 and 3
- 6 Hr SSS (four healthy volunteers [1]; [11]): 1 and 3 (2×) and 2
- total sleep time (four healthy volunteers [1]; second session, Alprazolam administrated with neuromodulators, all four patients): 1.5 to 2.5 h
- alertness and sedation by SSS, in words ([2]; 7-day period on alprazolam + placebo): significantly reduced alertness and increased sedation
- SSS Score ([2]; Placebo (alprazolam + placebo), post: 3 hours following alprazolam, Days 1-7): X - asleep
- SSS Score ([2]; Placebo column, 3 h post dose (before Day 1)): X - asleep
- SSS Score ([2]; Placebo column, Screen): 6
- SSS Score ([2]; Treatment (alprazolam + pseudoephedrine, Mucinex 15 minutes later), post: three hours after dose, Days 8-15): 1
- SSS Score ([2]; Treatment (alprazolam + pseudoephedrine, Mucinex 15 minutes later), pre, Days 10-15): 1
- efficacy by Hamilton Anxiety Scale ([2]; alprazolam + active neuromodulators): did not show any reduction in the efficacy
- SSS data relative to placebo treatment, in words ([2]; week on alprazolam + active neuromodulators): dramatic improvement relative to the placebo treatment
- Tmax [3]: 1 to 2 h
- bioactivity [3]: 55%
- sedation-related effects as measured by the SSS [4]: significantly reduced
- Elimination Half-Life [5]: 6 to 12 h

SMILES: O=C1Nc2ccc(Cl)cc2C(c2ccccc2Cl)=NC1O (centres unmarked) [Lorazepam]
- 2:00 SSS (four healthy volunteers [6]; [12]): X - Asleep
- 4:00 SSS (four healthy volunteers [6]; [12]): 2
- 6:00 SSS (four healthy volunteers [6]; [12]): 2
- 4:00 SSS (four healthy volunteers [6]; [13]): 2 (2×) and 3 and X - Asleep
- 6:00 SSS (four healthy volunteers [6]; [13]): 2 (3×) and X - Asleep
- sleep duration of individual subjects (four healthy volunteers [6]; Lorazepam 1.0 mg + placebo): three hours and 3.5 hours and 2.5 hours and 1 hour 15 minutes
- time until subject was asleep (four healthy volunteers [6]; Lorazepam 1.0 mg + placebo): within a half hour; also recorded: in one and a half hours
- sleep duration of individual subjects (four healthy volunteers [6]; [14]): stayed awake throughout the study and half an hour and 15 minutes and one hour
- time until subject was asleep (four healthy volunteers [6]; [14]): within an hour and a half
- 2:00 SSS (four healthy volunteers [6]; [15]): 3 and 2
- 4:00 SSS (four healthy volunteers [6]; [15]): 3 and 2
- 6:00 SSS (four healthy volunteers [6]; [15]): 3 and 2
- 2:00 SSS (four healthy volunteers [6]; [16]): 3 (2×) and X - Asleep and 2
- 4:00 SSS (four healthy volunteers [6]; [16]): 3 and 2 (2×) and X - Asleep
- 6:00 SSS (four healthy volunteers [6]; [16]): 3 (3×) and 2
- total sleep time (four healthy volunteers [6]; second session, Lorazepam administrated with neuromodulators, two subjects): 30 min
- Tmax [3]: 2 h
- bioactivity [3]: 90%
- subject-reported effects (subject): a little “loopy”
- Elimination Half-Life [5]: 10 to 20 h
- anxiety reported [7, 17]: feeling at ease and anxiety free
- sedation reported [7, 17]: did not feel sedated
- anxiety reported ([7]; Lorazepam alone): their anxiety was ameliorated
- sedation reported ([7]; Lorazepam alone): severely sedated
- sleep in an afternoon ([7]; Lorazepam alone): over 3 hours
- anxiety reported [7, 18]: hostile and anxious
- sedation reported [7, 18]: somewhat sedated
- anxiety reported [7, 19]: less anxious
- sedation reported [7, 19]: sedated
- anxiety reported [7, 20]: upon waking felt much less anxious than without treatment
- sedation reported [7, 20]: as sedated as with Lorazepam alone
